Test results: US12655142B2 (Merck Patent GmbH, priority 2019, dated 2026)

What was measured:
[1] = target: T1, GIST430/654 cell line expressing mutated constitutively active cKIT receptor tyrosine kinase (Δ560-576 deletion and V654A point mutation) (Homo sapiens, UniProt P10721, DEL560-576/V654A); test: Cellular cKIT autophosphorylation (phospho-Y307-cKIT, Luminex bead assay) in GIST430/654 cells; format: cell-based; conditions: compounds 45 min, read-out: GIST 430/654 IC50
T1 construct: endogenous in cells; host or cells: GIST430/654 cells
T1 sequence (P10721 with tags, fused parts or gaps DEL560-576/V654A): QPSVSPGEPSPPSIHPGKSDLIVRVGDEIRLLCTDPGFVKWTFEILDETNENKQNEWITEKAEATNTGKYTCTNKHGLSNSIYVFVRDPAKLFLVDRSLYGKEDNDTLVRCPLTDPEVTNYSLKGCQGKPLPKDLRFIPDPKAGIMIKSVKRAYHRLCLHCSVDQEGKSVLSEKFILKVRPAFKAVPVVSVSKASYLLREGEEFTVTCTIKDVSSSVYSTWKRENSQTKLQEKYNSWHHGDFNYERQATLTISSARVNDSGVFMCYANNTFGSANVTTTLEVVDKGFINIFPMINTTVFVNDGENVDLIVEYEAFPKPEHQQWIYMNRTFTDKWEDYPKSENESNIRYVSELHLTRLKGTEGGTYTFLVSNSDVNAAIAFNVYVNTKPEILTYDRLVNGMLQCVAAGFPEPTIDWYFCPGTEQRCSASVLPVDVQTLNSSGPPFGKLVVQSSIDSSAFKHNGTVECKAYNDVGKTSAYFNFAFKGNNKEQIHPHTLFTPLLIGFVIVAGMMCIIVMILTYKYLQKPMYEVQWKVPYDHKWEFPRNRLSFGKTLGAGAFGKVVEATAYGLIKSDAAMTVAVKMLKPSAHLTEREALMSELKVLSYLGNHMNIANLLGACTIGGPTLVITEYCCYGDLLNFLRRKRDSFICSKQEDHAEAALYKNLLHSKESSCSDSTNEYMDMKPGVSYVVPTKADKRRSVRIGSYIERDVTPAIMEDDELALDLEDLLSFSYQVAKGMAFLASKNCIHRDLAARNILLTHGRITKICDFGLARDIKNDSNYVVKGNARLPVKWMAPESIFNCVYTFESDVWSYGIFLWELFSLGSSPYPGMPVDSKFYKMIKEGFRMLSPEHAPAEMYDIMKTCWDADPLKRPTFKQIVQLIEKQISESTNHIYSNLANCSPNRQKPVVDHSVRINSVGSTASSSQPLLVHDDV
Method in brief: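 Phospho-Y307 cKIT in lysates was measured on a Luminex bead assay, with total-cKIT capture overnight at 4 °C and phosphospecific plus PE secondary detection. Cells had 45 min exposure to a compound dilution series the day after plating: GIST430 (Δ560-576) or GIST430/654 (Δ560-576/V654A, grown with 100 nM imatinib). IC50 values are relative to 0.3% DMSO-treated cells.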

[2] = Determination of Efflux-Ratio (ER) in Caco-2 cells; conditions: human, Caco-2, pH 7.4
c-Kit(V654A) = target: T2, c-Kit(V654A) (Homo sapiens, UniProt P10721, V654A); test: c-Kit(V654A) assay (33P-ATP filter binding kinase assay); format: biochemical; conditions: recombinant human c-Kit aa 544-end V654A, ATP 200 μM
T2 construct: recombinant human c-Kit, amino acids 544-end containing the V654A mutation; GST (N)
T2 sequence (P10721 544-976 V654A): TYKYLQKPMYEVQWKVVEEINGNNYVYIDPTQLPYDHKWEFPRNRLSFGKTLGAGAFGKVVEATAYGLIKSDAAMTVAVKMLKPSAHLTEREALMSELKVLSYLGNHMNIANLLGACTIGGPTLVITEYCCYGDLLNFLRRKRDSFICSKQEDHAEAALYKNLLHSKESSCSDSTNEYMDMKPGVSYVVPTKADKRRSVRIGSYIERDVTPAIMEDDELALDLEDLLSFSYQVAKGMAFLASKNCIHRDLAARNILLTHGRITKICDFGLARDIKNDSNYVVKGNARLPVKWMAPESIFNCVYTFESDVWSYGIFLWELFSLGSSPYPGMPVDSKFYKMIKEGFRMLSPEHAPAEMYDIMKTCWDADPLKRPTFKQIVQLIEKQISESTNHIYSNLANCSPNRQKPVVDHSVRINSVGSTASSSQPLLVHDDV
Method in brief: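 Radiometric filter-binding read-out: substrate 33P incorporation counted by scintillation after P30 filtermat washes in 75 mM phosphoric acid and methanol. Enzyme: N-GST recombinant human c-Kit aa 544-end carrying V654A.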

IC50 [1] [nM]	efflux ratio at 2 h, 1 μM [2]	IC50 (c-Kit(V654A)) [nM]	Compound
26	< 15	11	Cn1cc(-c2ccc(CNc3cc(-c4cnc5cc(OCCN6CC(F)C6)ccn45)ncn3)cc2)cn1 [A140, 6-{7-[2-(3-fluoroazetidin-1-yl)ethoxy]imidazo[1,2-a]pyridin-3-yl}-N-{[4-(1-methyl-1H-pyrazol-4-yl)phenyl]methyl}pyrimidin-4-amine]
85	> 50	15	CN1CCN(CCOc2ccn3c(-c4cc(NCc5ccc(-c6cnn(C)c6)cc5)ncn4)cnc3c2)C(=O)C1 [A141, 4-methyl-1-[2-({3-[6-({[4-(1-methyl-1H-pyrazol-4-yl)phenyl]methyl}amino)pyrimidin-4-yl]imidazo[1,2-a]pyridin-7-yl}oxy)ethyl]piperazin-2-one]
61	> 50	5.1	CN1CC(COc2ccn3c(-c4cc(NCc5ccc(-c6cnn(C)c6)cc5)ncn4)cnc3c2)C1 [A144, N-{[4-(1-methyl-1H-pyrazol-4-yl)phenyl]methyl}-6-{7-[(1-methylazetidin-3-yl)methoxy]imidazo[1,2-a]pyridin-3-yl}pyrimidin-4-amine]
140	< 15	13	COc1ccn2c(-c3cc(OCc4ccc(-c5cnn(C)c5)cc4)ncn3)cnc2c1 [A158, 7-methoxy-3-{6-[4-(1-methyl-1H-pyrazol-4-yl)-benzyloxy]-pyrimidin-4-yl}-imidazo[1,2-a]pyridine]
57	> 50	2	Cn1ncc(-c2ccc(CNc3cc(-c4cnc5cc(OCC6CCNCC6)ccn45)ncn3)cc2)n1 [A165]
120	> 50	4	Cn1cc(-c2ccc(CNc3cc(-c4cnc5cc(OCC6CCNCC6)ccn45)ncn3)cc2)cn1 [A166, [4-(1-methyl-1H-pyrazol-4-yl)-benzyl]-{6-[7-(piperidin-4-ylmethoxy)-imidazo[1,2-a]pyridin-3-yl]-pyrimidin-4-yl}-amine]
500	> 50	7.5	Cn1cc(-c2ccc(CNc3cc(-c4cnc5cc(OCC6CNC6)ccn45)ncn3)cc2)cn1 [A167, 6-{7-[(azetidin-3-yl)methoxy]imidazo[1,2-a]pyridin-3-yl}-N-{[4-(1-methyl-1H-pyrazol-4-yl)phenyl]methyl}pyrimidin-4-amine]
480	> 50	9.8	Cn1cc(-c2ccc(CNc3cc(-c4cnc5cc(OCCC6CCNC6)ccn45)ncn3)cc2)cn1 (stereo not drawn) [A175, [4-(1-methyl-1H-pyrazol-4-yl)-benzyl]-{6-[7-(2-pyrrolidin-3-yl-ethoxy)-imidazo[1,2-a]pyridin-3-yl]-pyrimidin-4-yl}-amine]
84	> 50	3.2	Cn1ncc(-c2ccc(CNc3cc(-c4cnc5cc(OCCC6CCNC6)ccn45)ncn3)cc2)n1 (stereo not drawn) [A176, [4-(2-methyl-2H-[1,2,3]triazol-4-yl)-benzyl]-{6-[7-(2-pyrrolidin-3-yl-ethoxy)-imidazo[1,2-a]pyridin-3-yl]-pyrimidin-4-yl}-amine]
24	> 50	3.1	Cn1ncc(-c2ccc(CNc3cc(-c4cnc5cc(N6CCC(CCO)C6)ccn45)ncn3)cc2)n1 (stereo not drawn) [A179, 2-[1-(3-{6-[4-(2-methyl-2H-[1,2,3]triazol-4-yl)-benzylamino]-pyrimidin-4-yl}-imidazo[1,2-a]pyridin-7-yl)-pyrrolidin-3-yl]-ethanol]
27	< 15	7.7	Cn1cc(-c2ccc(CNc3cc(-c4cnc5cc(OCC6CN(C7COC7)C6)ccn45)ncn3)cc2)cn1 [A183, N-{[4-(1-methyl-1H-pyrazol-4-yl)phenyl]methyl}-6-(7-{[1-(oxetan-3-yl)azetidin-3-yl]methoxy}imidazo[1,2-a]pyridin-3-yl)pyrimidin-4-amine]
76	< 15	20	Cn1cc(-c2ccc(CNc3cc(-c4cnc5cc(OCCCN6CCN(C7COC7)CC6)ccn45)ncn3)cc2)cn1 [A184, [4-(1-methyl-1H-pyrazol-4-yl)-benzyl]-(6-{7-[3-(4-oxetan-3-yl-piperazin-1-yl)-propoxy]-imidazo[1,2-a]pyridin-3-yl}-pyrimidin-4-yl)-amine]
80	< 15	7	Cn1ncc(-c2ccc(CNc3cc(-c4cnc5cc(OCC6CCN(C7CC7)CC6)ccn45)ncn3)cc2)n1 [A186, {6-[7-(1-cyclopropyl-piperidin-4-ylmethoxy)-imidazo[1,2-a]pyridin-3-yl]-pyrimidin-4-yl}-[4-(2-methyl-2H-[1,2,3]triazol-4-yl)-benzyl]-amine]
160	< 15	9.8	Cn1ncc(-c2ccc(CNc3cc(-c4cnc5cc(OCC6CCN(CC#N)CC6)ccn45)ncn3)cc2)n1 [A189, [4-(3-{6-[4-(2-methyl-2H-[1,2,3]triazol-4-yl)-benzylamino]-pyrimidin-4-yl}-imidazo[1,2-a]pyridin-7-yloxymethyl)-piperidin-1-yl]-acetonitrile]
67	< 15	28	Cn1cc(-c2ccc(CNc3cc(-c4cnc5cc(OCC6CCN(CC(F)F)CC6)ccn45)ncn3)cc2)cn1 [A192, (6-{7-[1-(2,2-difluoro-ethyl)-piperidin-4-ylmethoxy]-imidazo[1,2-a]pyridin-3-yl}-pyrimidin-4-yl)-[4-(1-methyl-1H-pyrazol-4-yl)-benzyl]-amine]
92	> 50	6.1	Cn1cc(-c2ccc(CNc3cc(-c4cnc5cc(OCCN6CC[S+]([O-])CC6)ccn45)ncn3)cc2)cn1 [A194, [4-(1-methyl-1H-pyrazol-4-yl)-benzyl]-(6-{7-[2-(1-oxo-1|4-thiomorpholin-4-yl)-ethoxy]-imidazo[1,2-a]pyridin-3-yl}-pyrimidin-4-yl)-amine]
72	< 15	9.7	Cn1cc(-c2ccc(CNc3cc(-c4cnc5cc(OCCN6Cc7ccncc7C6)ccn45)ncn3)cc2)cn1 [A195, (6-{7-[2-(1,3-dihydro-pyrrolo[3,4-c]pyridin-2-yl)-ethoxy]-imidazo[1,2-a]pyridin-3-yl}-pyrimidin-4-yl)-[4-(1-methyl-1H-pyrazol-4-yl)-benzyl]-amine]
140	< 15	14	Cn1cc(-c2ccc(CNc3cc(-c4cnc5cc(OCCN6CCC(C)(F)CC6)ccn45)ncn3)cc2)cn1 [A196, (6-{7-[2-(4-fluoro-4-methyl-piperidin-1-yl)-ethoxy]-imidazo[1,2-a]pyridin-3-yl}-pyrimidin-4-yl)-[4-(1-methyl-1H-pyrazol-4-yl)-benzyl]-amine]
150	< 15	12	Cn1cc(-c2ccc(CNc3cc(-c4cnc5cc(OCCN6CCN(C7CC7)CC6)ccn45)ncn3)cc2)cn1 [A197, (6-{7-[2-(4-cyclopropyl-piperazin-1-yl)-ethoxy]-imidazo[1,2-a]pyridin-3-yl}-pyrimidin-4-yl)-[4-(1-methyl-1H-pyrazol-4-yl)-benzyl]-amine]
100	> 50	9.7	Cn1cc(-c2ccc(CNc3cc(-c4cnc5cc(OCCN6CC7CC6C[S+]7[O-])ccn45)ncn3)cc2)cn1 (stereo not drawn) [A199, [4-(1-methyl-1H-pyrazol-4-yl)-benzyl]-(6-{7-[2-(2-oxo-2|4-thia-5-aza-bicyclo[2.2.1]hept-5-yl)-ethoxy]-imidazo[1,2-a]pyridin-3-yl}-pyrimidin-4-yl)-amine]
190	< 15	27	Cn1cc(-c2ccc(CNc3cc(-c4cnc5cc(OCCN6CCOCC(F)(F)C6)ccn45)ncn3)cc2)cn1 [A200, (6-{7-[2-(6,6-difluoro-[1,4]oxazepan-4-yl)-ethoxy]-imidazo[1,2-a]pyridin-3-yl}-pyrimidin-4-yl)-[4-(1-methyl-1H-pyrazol-4-yl)-benzyl]-amine]
99	< 15	13	Cn1cc(-c2ccc(CNc3cc(-c4cnc5cc(OCCN6CCN7CCOCC7C6)ccn45)ncn3)cc2)cn1 (stereo not drawn) [A201, (6-{7-[2-(hexahydro-pyrazino[2,1-c][1,4]oxazin-8-yl)-ethoxy]-imidazo[1,2-a]pyridin-3-yl}-pyrimidin-4-yl)-[4-(1-methyl-1H-pyrazol-4-yl)-benzyl]-amine]
200	< 15	17	Cn1cc(-c2ccc(CNc3cc(-c4cnc5cc(OCCN6CCC(F)(F)CC6)ccn45)ncn3)cc2)cn1 [A202, (6-{7-[2-(4,4-difluoro-piperidin-1-yl)-ethoxy]-imidazo[1,2-a]pyridin-3-yl}-pyrimidin-4-yl)-[4-(1-methyl-1H-pyrazol-4-yl)-benzyl]-amine]

Compound	IC50 [1] [nM]	efflux ratio at 2 h, 1 μM [2]	IC50 (c-Kit(V654A)) [nM]
CN1CC2CCC(C1)N2CCOc1ccn2c(-c3cc(NCc4ccc(-c5cnn(C)c5)cc4)ncn3)cnc2c1 [A198, (6-{7-[2-(3-methyl-3,8-diaza-bicyclo[3.2.1]oct-8-yl)-ethoxy]-imidazo[1,2-a]pyridin-3-yl}-pyrimidin-4-yl)-[4-(1-methyl-1H-pyrazol-4-yl)-benzyl]-amine]	120	15 to 50	10
